Test system: E. coli MG1655
Experiment: Accumulation assay in E. coli (LC-MS/MS)
Type: cell-based
Conditions: wildtype E. coli MG1655, 10 minutes incubation
Method: For the accumulation assay, the protocol from Richter, et al., 2017, Nature 545:299-304 was followed. An overnight culture of bacteria grown in LB Lennox, was inoculated into fresh media and grown to an OD600 of 0.5-0.6. Cells were pelleted, resuspended in 1× phosphate-buffered saline (PBS) and then incubated with the compound of interest for 10 minutes at 37°. After incubation, the OD600 was recorded to note if compounds affected cell growth and then the cultures were centrifuged down through a 9:1 mixture of silicone oil (viscosity=20 cST) to high temperature silicone oil which was cooled at −80°. Cell pellets were isolated and lysed by 3 cycles of freeze-thawing using liquid nitrogen and a 65° water bath. The cell lysate was isolated from the cell debris (in water and methanol) and then analyzed via mass spectrometry. […] Multiple reaction monitoring (MRM) was used to quantify these compounds. […] The concentrations of these compounds were calculated on the basis of their corresponding standard curves.
To determine the colony forming units (CFU) per mL based on the OD600, the OD600 of E. coli MG1655 culture in LB-Lennox was measured then the culture was diluted and plated to count colonies. Based on this, the CFU per mL for 1 O.D.600 (for MG1655 cells grown in LB-Lennox) was determined to be approximately 2.15×10^8 and this value was used for accumulation calculations. […]

In the case of `CCOc1ccccc1N1CCN(c2ncnc(N3CCC(C(=O)O)CC3)n2)CC1` [CDD-97, 1-(4-(4-(2-ethoxyphenyl)piperazin-1-yl)-1,3,5-triazin-2-yl)piperidine-4-carboxylic acid], the “accumulation in cells, fold lower levels compared to tetracycline” value is reported as 20 fold.

Source: US12286418B2, “Compounds and methods for treating or preventing bacterial infections” (priority 2019, dated 2025)
